Measured values: US9751881B2, “Inhibitors of the renal outer medullary potassium channel” (Merck Sharp & Dohme Corp., priority 2013, dated 2017)
Counter-ions that a name gives are not always drawn.

Target: hROMK (hKir1.1) (Homo sapiens (Human), UniProt P48048)
Experiment: Thallium Flux Assay (ROMK channel functional thallium flux, FLIPR-Tetra)
Type: cell-based
Conditions: HEK293 cells stably expressing hROMK (hKir1.1); unit not given in Table 4 (IC50 potencies less than 1 μM); read-out: ROMK TI IC50
Procedure: Cell Culture Conditions—HEK293 cells stably expressing hROMK (hKir1.1) were grown at 37° C. in a 10% CO2 humidified incubator in complete growth media: Dulbecco's Modified Eagle Medium supplemented with non-essential amino acids, Penicillin/Streptomycin/Glutamine, G418 and FBS. At >80% confluency, the media was aspirated from the flask and rinsed with 10 mL calcium/magnesium-free PBS. […] To dislodge the cell, the side of the flask was gently banged with one's hand. The cells completely titrated and then the cells were transferred to 25 mL complete media, centrifuged at 1,500 rpm for 6 min followed by resuspension in complete growth media and determine cell concentration. […] Under ideal growth conditions and appropriate tissue culture practices, this cell line is stable for 40-45 passages.
FluxOR Kit Components (Invitrogen F10017)
• FluxOR™ Reagent (Component A) • FluxOR™ Assay Buffer (Component B)—10× Concentrate • PowerLoad™ Concentrate (Component C)—100× Concentrate • Probenecid (Component D)—Lyophilized sample is kept at −20° C. Water soluble, 100× after solubilization in 1 mL water. […] Store at 4° C. • Thallium sulfate (Tl2SO4) Concentrate (Component G)—50 mM in water. […] Can be stored at room temperature • Stimulant Buffer (prepared at 5× final concentration in 1× FluxOR™Chloride-Free Buffer): 7.5 mM thallium sulfate and 0.75 mM potassium sulfate (to give a final assay concentration of 3 mM Thallium/0.3 mM potassium). Store at 4° C. when not in use. If kept sterile, this solution is good for months.
• 1. Seed HEK-hKir1.1 cells (50 μl at 20,000 cells/well) in 384-well PDL coated Microplates • 2. Allow cells to adhere overnight in humidified 37° C./10% CO2 incubator • 3. Completely remove cell growth media from microplate and replace with 25 μl loading buffer • 4. Incubate Microplate at room temperature, protected form light, for 90 min • 5. Remove loading buffer and replace with 25 μl 1× Assay Buffer±test compound. • 6. Incubate microplate at room temperature, protected from light, for 30 min • 7. […] Excitation=400 nm, Emission=460 & 580 nm. Collect data for ˜10 min.
Data Calculation—The fluorescence intensity of wells containing 3 μM of a standard control ROMK inhibitor of the present invention was used to define the ROMK-sensitive component of thallium flux. Fluorescence in the presence of test compounds was normalized to control values to provide % fluorescence change.

Sequence of hROMK (hKir1.1) (P48048 whole entry): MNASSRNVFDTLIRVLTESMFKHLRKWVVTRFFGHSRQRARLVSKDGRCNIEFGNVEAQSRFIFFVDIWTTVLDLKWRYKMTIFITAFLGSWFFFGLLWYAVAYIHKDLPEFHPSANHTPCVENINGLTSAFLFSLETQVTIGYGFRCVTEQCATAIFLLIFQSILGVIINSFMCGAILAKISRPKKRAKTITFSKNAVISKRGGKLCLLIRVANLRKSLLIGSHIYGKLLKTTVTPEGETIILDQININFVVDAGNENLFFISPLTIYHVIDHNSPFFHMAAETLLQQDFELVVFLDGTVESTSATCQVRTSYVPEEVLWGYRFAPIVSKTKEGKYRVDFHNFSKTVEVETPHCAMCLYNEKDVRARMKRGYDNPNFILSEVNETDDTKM

SMILES	IC50 [nM]
Cc1c(CCN2CCC3(CC2)CCN(c2ccc(-c4ncon4)cn2)C3)ccc2c1COC2=O [Example 17, 5-(2-(2-(5-(1,2,4-oxadiazol-3-yl)pyridin-2-yl)-2,8-diazaspiro[4.5]decan-8-yl)ethyl)-4-methylisobenzofuran-1(3H)-one]	190
Cc1c([C@@H](O)CN2CCC3(CC2)CC(=O)N(c2ccc(-n4cnnn4)cn2)C3)ccc2c1COC2=O [Example 6, (R)-2-(5-(1H-tetrazol-1-yl)pyridin-2-yl)-8-(2-hydroxy-2-(4-methyl-1-oxo-1,3-dihydroisobenzofuran-5-yl)ethyl)-2,8-diazaspiro[4.5]decan-3-one]	92.5
Cc1c([C@@H](O)CN2CCC3(CC2)CCN(c2cnc(S(C)(=O)=O)cn2)C3)ccc2c1COC2=O [Example 33, (R)-5-(1-Hydroxy-2-(2-(5-(methylsulfonyl)pyrazin-2-yl)-2,8-diazaspiro[4.5]decan-8-yl)ethyl)-4-methylisobenzofuran-1(3H)-one]	44.1
Cc1c([C@@H](O)CN2CCC3(CC2)CCN(c2ccc(S(C)(=O)=O)cn2)C3=O)ccc2c1COC2=O [Example 96, (R)-8-(2-Hydroxy-2-(4-methyl-1-oxo-1,3-dihydroisobenzofuran-5-yl)ethyl)-2-(5-(methylsulfonyl)pyridin-2-yl)-2,8-diazaspiro[4.5]decan-1-one]	86
Cc1c([C@@H](O)CN2CCC3(CC2)CCN(c2nnc(S(C)(=O)=O)s2)C3)ccc2c1COC2=O [Example 62, 5-[(1R)-1-hydroxy-2-{2-[5-(methylsulfonyl)-1,3,4-thiadiazol-2-yl]-2,8-diazaspiro[4.5]dec-8-yl}ethyl]-4-methyl-2-benzofuran-1(3H)-one hydrochloride]	210
Cc1c([C@@H](O)CN2CCC3(CC2)CC(=O)N(c2ccc(S(C)(=O)=O)cc2)C3)ccc2c1COC2=O [Example 74, 8-[(2R)-2-Hydroxy-2-(4-methyl-1-oxo-1,3-dihydro-2-benzofuran-5-yl)ethyl]-2-[4-(methylsulfonyl)phenyl]-2,8-diazaspiro[4.5]decan-3-one hydrochloride]	82.2
COc1cc(N2CC3(CCN(C[C@H](O)c4ccc5c(c4C)COC5=O)CC3)CC2=O)ncc1C#N [Example 59, (R)-6-(8-(2-Hydroxy-2-(4-methyl-1-oxo-1,3-dihydroisobenzofuran-5-yl)ethyl)-3-oxo-2,8-diazaspiro[4.5]decan-2-yl)-4-methoxynicotinonitrile]	32.9
Cc1c([C@H](O)CN2CCC3(CC2)CCN(c2ccc(S(C)(=O)=O)cn2)C3)ccc2c1COC2=O [Example 56, (S)-5-(1-Hydroxy-2-(2-(5-(methylsulfonyl)pyridin-2-yl)-2,8-diazaspiro[4.5]decan-8-yl)ethyl)-4-methylisobenzofuran-1(3H)-one]	341
Cc1c([C@@H](O)CN2CCC3(CC2)CCN(c2ccc(-n4ccnn4)cc2)C3)ccc2c1COC2=O [Example 80]	63.5
Cc1c(C(O)CN2CCC3(CC2)CCN(c2ncc(C#N)cc2F)CC3)ccc2c1COC2=O (stereo not shown) [Example 113]	473
Cc1c([C@@H](O)CN2CCC3(CCN(c4ccc(C#N)cn4)CC3)C2)ccc2c1COC2=O [Example 53, (R)-6-(2-(2-Hydroxy-2-(4-methyl-1-oxo-1,3-dihydroisobenzofuran-5-yl)ethyl)-2,8-diazaspiro[4.5]decan-8-yl)nicotinonitrile]	19
Cc1c([C@@H](O)CN2CCC3(CC2)CN(c2ccc(S(C)(=O)=O)cn2)CCO3)ccc2c1COC2=O [Example 98, (R)-5-(1-Hydroxy-2-(4-(5-(methylsulfonyl)pyridin-2-yl)-1-oxa-4,9-diazaspiro[5.5]undecan-9-yl)ethyl)-4-methylisobenzofuran-1(3H)-one]	376
Cc1c([C@@H](O)CN2CCC3(CC2)CC(=O)N(c2ccc(S(C)(=O)=O)cn2)C3)ccc2c1COC2=O [Example 34, (R)-8-(2-Hydroxy-2-(4-methyl-1-oxo-1,3-dihydroisobenzofuran-5-yl)ethyl)-2-(5-(methylsulfonyl)pyridin-2-yl)-2,8-diazaspiro[4.5]decan-3-one]	53.4
Cc1c([C@@H](O)CN2CCC3(CCN(c4ncc(-n5cnnn5)cn4)CC3)C2)ccc2c1COC2=O [Example 54, (R)-5-(2-(8-(5-(1H-tetrazol-1-yl)pyrimidin-2-yl)-2,8-diazaspiro[4.5]decan-2-yl)-1-hydroxyethyl)-4-methylisobenzofuran-1(3H)-one]	262
C=CCN[C@@H](CN1CCC2(CC1)CCN(c1ccc(C#N)cn1)C2)c1ccc2c(c1C)COC2=O [Example 78, (R)-6-(8-(2-(allylamino)-2-(4-methyl-1-oxo-1,3-dihydroisobenzofuran-5-yl)ethyl)-2,8-diazaspiro[4.5]decan-2-yl)nicotinonitrile]	70.6
Cc1c([C@@H](O)CN2CCC3(CC2)CCN(c2ccc(C#N)nc2)C3)ccc2c1COC2=O [Example 87]	88.7
Cc1c([C@@H](O)CN2CCC3(CCN(c4ccc(S(C)(=O)=O)cn4)CC3)C2)ccc2c1COC2=O [Example 64, 5-[(1R)-1-Hydroxy-2-{8-[5-(methylsulfonyl)pyridin-2-yl]-2,8-diazaspiro[4.5]dec-2-yl}ethyl]-4-methyl-2-benzofuran-1(3H)-one hydrochloride]	272
Cc1c([C@@H](O)CN2CCC3(CC2)CN(c2ccc(S(C)(=O)=O)cn2)C3)ccc2c1COC2=O [Example 47, (R)-5-(1-Hydroxy-2-(2-(5-(methylsulfonyl)pyridin-2-yl)-2,7-diazaspiro[3.5]nonan-7-yl)ethyl)-4-methylisobenzofuran-1(3H)-one]	220
Cc1c([C@@H](O)CN2CCC3(CC2)CC(=O)N(c2cnc(S(C)(=O)=O)cn2)C3)ccc2c1COC2=O [Example 35, (R)-8-(2Hydroxy-2-(4-methyl-1-oxo-1,3-dihydroisobenzofuran-5-yl)ethyl)-2-(5-(methylsulfonyl)pyrazin-2-yl)-2,8-diazaspiro[4.5]decan-3-one]	74.2
Cc1c([C@@H](O)CN2CCC3(CC2)CCN(c2ncc(-n4cnnn4)cn2)C3)ccc2c1COC2=O [Example 15, (R)-5-(2-(2-(5-(1H-tetrazol-1-yl)pyrimidin-2-yl)-2,8-diazaspiro[4.5]decan-8-yl)-1-hydroxyethyl)-4-methylisobenzofuran-1(3H)-one]	57
Cc1c([C@@H](O)CN2CCC3(CC2)CCN(c2ncc(C#N)s2)C3)ccc2c1COC2=O [Example 90]	6.7
Cc1c([C@@H](O)CN2CCC3(CC2)CC(=O)N(c2ccc(C#N)cn2)C3)ccc2c1COC2=O [Example 1, (R)-6-(8-(2-hydroxy-2-(4-methyl-1-oxo-1,3-dihydroisobenzofuran-5-yl)ethyl)-3-oxo-2,8-diazaspiro[4.5]decan-2-yl)nicotinonitrile]	10.5
Cc1c([C@@H](O)CN2CCC3(CC2)CCN(c2ccc(C#N)cn2)C3)ccc2c1COC2=O [Example 3, (R)-6-(8-(2-hydroxy-2-(4-methyl-1-oxo-1,3-dihydroisobenzofuran-5-yl)ethyl)-2,8-diazaspiro[4.5]decan-2-yl)nicotinonitrile]	10
CC1Cc2cc(C(O)CN3CCC4(CC3)CCN(c3ccc(C#N)cn3)C4)ccc2C(=O)O1 [Example 21, 6-(8-(2-Hydroxy-2-((R)-3-methyl-1-oxoisochroman-6-yl)ethyl)-2,8-diazaspiro[4.5]decan-2-yl)nicotinonitrile]	50.1
Cc1c(C(O)CN2CCC3(CC2)CCN(c2cnc(C#N)cn2)CC3)ccc2c1COC2=O (stereo not shown) [Example 111]	9.62
Cc1c([C@@H](O)CN2CCC3(CC2)CC(=O)N(c2ccc(-n4cnnn4)nc2)C3)ccc2c1COC2=O [Example 72, 8-[(2R)-2-Hydroxy-2-(4-methyl-1-oxo-1,3-dihydro-2-benzofuran-5-yl)ethyl]-2-[6-(1H-tetrazol-1-yl)pyridin-3-yl]-2,8-diazaspiro[4.5]decan-3-one hydrochloride]	100
COc1ccc(C#N)cc1N1CCC2(CCN(C[C@H](O)c3ccc4c(c3C)COC4=O)CC2)C1 [Example 85]	234
Cc1c([C@@H](O)CN2CCC3(CC2)CCN(c2ccc(C#N)nn2)C3)ccc2c1COC2=O [Example 18, (R)-6-(8-(2-Hydroxy-2-(4-methyl-1-oxo-1,3-dihydroisobenzofuran-5-yl)ethyl)-2,8-diazaspiro[4.5]decan-2-yl)pyridazine-3-carbonitrile]	156
